Experimental findings from publication PMC3739791, “Sonic Hedgehog-Induced Histone Deacetylase Activation Is Required for Cerebellar Granule Precursor Hyperplasia in Medulloblastoma” (PLoS ONE, 2013) are described below.

The target in this test is T1, HDAC6 (Mus musculus, UniProt Q9Z2V5).
T1 sequence (Q9Z2V5 1-1149): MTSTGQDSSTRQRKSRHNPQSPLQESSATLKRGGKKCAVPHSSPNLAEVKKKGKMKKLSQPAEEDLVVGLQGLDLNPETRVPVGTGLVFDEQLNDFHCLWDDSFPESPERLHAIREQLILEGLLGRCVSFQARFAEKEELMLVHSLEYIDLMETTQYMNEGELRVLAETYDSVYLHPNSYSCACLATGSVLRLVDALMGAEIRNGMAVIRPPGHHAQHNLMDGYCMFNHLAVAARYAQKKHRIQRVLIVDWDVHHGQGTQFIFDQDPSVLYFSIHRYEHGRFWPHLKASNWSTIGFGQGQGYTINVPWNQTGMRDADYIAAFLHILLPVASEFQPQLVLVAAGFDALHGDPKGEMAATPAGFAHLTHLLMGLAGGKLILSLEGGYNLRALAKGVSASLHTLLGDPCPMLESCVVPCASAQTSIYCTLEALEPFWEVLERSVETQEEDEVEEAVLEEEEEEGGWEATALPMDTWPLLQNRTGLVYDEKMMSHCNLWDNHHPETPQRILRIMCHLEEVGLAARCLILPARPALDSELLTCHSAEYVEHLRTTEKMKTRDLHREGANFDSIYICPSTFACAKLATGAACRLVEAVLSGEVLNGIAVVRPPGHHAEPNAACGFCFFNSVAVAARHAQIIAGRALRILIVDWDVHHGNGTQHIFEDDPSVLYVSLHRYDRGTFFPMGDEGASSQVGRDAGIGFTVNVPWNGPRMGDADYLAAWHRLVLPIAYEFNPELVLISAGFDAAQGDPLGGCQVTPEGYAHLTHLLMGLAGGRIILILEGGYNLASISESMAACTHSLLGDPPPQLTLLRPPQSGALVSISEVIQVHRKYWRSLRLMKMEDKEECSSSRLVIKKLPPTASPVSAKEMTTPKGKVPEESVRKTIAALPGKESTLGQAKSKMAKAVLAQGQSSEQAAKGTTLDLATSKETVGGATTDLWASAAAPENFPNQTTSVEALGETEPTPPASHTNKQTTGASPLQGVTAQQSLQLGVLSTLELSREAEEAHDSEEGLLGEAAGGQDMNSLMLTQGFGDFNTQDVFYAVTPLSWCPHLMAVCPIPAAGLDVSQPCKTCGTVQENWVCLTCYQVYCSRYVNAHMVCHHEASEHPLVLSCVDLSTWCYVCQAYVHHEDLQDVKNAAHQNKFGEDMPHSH
In words: acetylated tubulin immunohistochemistry in brain sections of treated Smo/Smo mice (readout of HDAC6 inhibition in vivo). It counts as cell-based.

For `CN1CCc2c(c3ccccc3n2Cc2ccc(C(=O)NO)cc2)C1` [Tubastatin A], the “acetylated tubulin immunohistochemistry in brain sections of treated Smo/Smo mic” value is given as “although tubulin acetylation as a measure for HDAC6 inhibition was increased (Fig. S4)”.
